# Source: article PMC10307035, “Antiviral activity of singlet oxygen-photogenerating perylene compounds against SARS-CoV-2: Interaction with the viral envelope and photodynamic virion inactivation” (Virus Research, 2023)
# Columns and labels:
# [1] = ROS generation rate / quantum yield, DPBF bleaching in methanol; format: physicochemical; details: in methanol, DPBF trap, 450–470 nm illumination, riboflavin as reference
# Text: The ROS generation rate was estimated using the spectrophotometric method, based on the absorption changes of 1,3-diphenylisobenzofuran (DPBF, Sigma Aldrich, Germany) in methanol solution. Irreversible oxidation of DPBF by singlet oxygen results in peroxide formation, and DPBF bleaching. When light of 400–450 nm was used as actinic, DPBF bleaching occurred without any photosensitizer (PS) in solution. Therefore, to study photosensitized ROS generation, we used a white MCWHLP1 LED (Thorlabs, USA) with filters to limit the radiation to the 450–470 nm range (5.5 mW/cm^2).
# Spectrophotometric measurements were performed in a Qpod 2e (Quantum Northwest, USA) thermostated cuvette holder at 25 °C with magnetic stirring (500 rpm). Absorption spectra were recorded using a MayaPro spectrophotometer (Ocean Optics, USA) and a stabilized white light source with a SLS201L tungsten lamp (Thorlabs, USA). Illumination was uniform over the entire volume of the cuvette, to prevent artifacts associated with the diffusion of non-reacted components into the illuminated volume of the cuvette. In this case, the rate of irreversible bleaching of DPBF (412 nm) was the same under both continuous and pulsed irradiation with equal total irradiation time. Illumination was performed in a pulsed mode (Fig. S5A), with 1 s of illumination followed by 5 s of dark adaptation, during which the absorption spectrum of the PS-DPBF solution was recorded. Data processing was performed as previously described ([Gvozdev et al., 2020]).
# [2] = Fluorescence quantum yield determination; format: physicochemical; details: in DMSO, relative to rhodamin B
# Protocol: The samples’ steady-state fluorescence characteristics were measured in L-format using a Chronos DFD Fluorescence spectrometer (ISS, USA) equipped with a 300 W Cermax xenon arc lamp (ISS, USA), a concave holographic grating monochromator, and a PMT detector. The required amount of each sample was diluted in DMSO and measured in a 1-cm quartz cuvette at a constant temperature of 25 °C. The resulting data were evaluated using Vinci software (ISS, USA) and correlated to the utilized optical configuration.
# Absorption spectra were measured using a high-performance Specord S 600 diode spectrophotometer (Jena Analyst, DE). The required amount of each sample was diluted in DMSO, added to 1-cm quartz cuvette, and measured within the selected absorbance spectrum range, against pure DMSO as a blank, at a constant temperature of 25 °C. The results were evaluated using WinASPECT® software (Jena Analyst, DE).
# Fluorescence quantum yield was determined following a previously described protocol ([Kozma et al., 2005]; [Magde et al., 1999]; [Williams et al., 1983]). The kinetics of the incorporation of compounds into liposome membrane models was determined using steady-state fluorescence spectroscopy at a constant excitation and emission wavelength, according to the corresponding sample excitation and emission maxima. We added 50 μL of LNP suspension to 0.1 mM of the analyte in PBS, and monitored the increase of fluorescence intensity over the time range from 0 to 1400s. The preparation and characterization of the liposomal suspension is described in the supporting information (Fig. S4).
# 1. Supplementary material and methods
# 1.1. Fluorescence quantum yield (QY) determination
# The steady-state fluorescence and absorption data were used for quantum yield determination. QY was determined relative to a reference compound, rhodamin B. Absorbance in the range of 0.01–0.1 was used to calculate the QY. We plotted two calibration curves of integrated emission fluorescence intensity as a function of sample absorbance. […]
structure (smiles),measurement,setting,value
CC(C)(C)C(=O)OCn1c(=O)c(C#Cc2ccc3c4cccc5cccc(c6cccc2c63)c54)cn(CC(=O)N(CCO)CCO)c1=O [Compound 13],φROS (ROS generation quantum yield),[1],19.1 ± 0.2%
same,fluorescence quantum yield,[2],90%
